{
  "source": "patent US20030199516A1",
  "about": "“Methods of treating infection by drug resistant bacteria” (Genesoft, Inc., priority 2001, published 2003)",
  "key": {"[1]": {"tested_on": "Candida albicans ATCC 38247", "test": "Antifungal MIC", "type": "cell-based", "conditions": "Col. F = C. albicans ATCC 38247", "excerpt": "(§1) In vitro antibacterial activity data were collected for the following Gram-positive bacteria: Staphylococcus aureus (ATCC 27660, ATCC 33591 and ATCC 43300, all methicillin resistant strains (MRSA's)); Streptococcus pneumoniae (ATCC 51422, a penicillin resistant strain (PRSP)), Enterococcus faecium (ATCC 51559, and/or a vancomycin resistant strain (VRE)). Additionally, antifungal activity data were collected for Candida albicans (ATCC 38247). Minimal inhibition concentrations (MIC's) were determined using the National Committee for Clinical Laboratory Standards (NCCLS) broth microdilution assay in microtiter plates, as set forth in: (1) the guidelines of the National Committee for Clinical Laboratory Standards (NCCLS) Document M7-A4 (NCCLS, 1997); (2) the guidelines of the National Committee for Clinical Laboratory Standards (NCCLS) Document M11-A4 (NCCLS, 1997); and (3) the guidelines and reference method of the National Committee for Clinical Laboratory Standards (NCCLS) Document M27-T (NCCLS, 1995). For antifungal essays, the method recommended in Murray, PR., 1995 Manual of Clinical Microbiology (ASM Press, Washington, D.C.), was employed."}, "[2]": {"tested_on": "Enterococcus faecium ATCC 51559", "test": "NCCLS broth microdilution MIC", "type": "cell-based", "conditions": "Col. D = E. faecium ATCC 51559 (VRE)", "excerpt": "as §1"}, "[3]": {"tested_on": "Streptococcus pneumoniae ATCC 51422", "test": "NCCLS broth microdilution MIC", "type": "cell-based", "conditions": "Col. E = S. pneumoniae ATCC 51422 (PRSP)", "excerpt": "as §1"}, "S. aureus ATCC 33591": {"tested_on": "S. aureus ATCC 33591", "test": "NCCLS broth microdilution MIC", "type": "cell-based, Staphylococcus aureus", "conditions": "Col. B = S. aureus ATCC 33591 (MRSA)", "excerpt": "as §1"}, "S. aureus ATCC 27660": {"tested_on": "S. aureus ATCC 27660", "test": "NCCLS broth microdilution MIC", "type": "cell-based, Staphylococcus aureus", "conditions": "Col. A = S. aureus ATCC 27660 (MRSA)", "excerpt": "as §1"}, "[4]": {"target": "target sequence TGACAATTAAT (352 bp fragment, Plasmid C)", "test": "Quantitative DNase I footprint titration", "type": "binding", "conditions": "352 bp C, 22° C., pH 7.0, read-out: Dissociation Constant Kd", "excerpt": "(§2) Compounds (1) through (20) according to this invention were screened for their ability to bind to specified DNA target sequences, using DNase I footprinting. Generally, the procedure described in Dervan, WO 98/50582 (1998), was followed.\n(§3) Three double stranded circular plasmids A, B, and C were used to prepare double stranded DNA-binding probes containing the target sequences for the DNase I footprint titration experiments. Plasmids A, B, and C had nucleotide sequences given by SEQ ID NO. I, SEQ ID NO. II, and SEQ ID NO. III, respectively.\n(§4) The 3′-P32 end-labeled EcoRI/PvuII fragments from each plasmid were prepared by digesting the plasmids with EcoRI and PvuII with simultaneous fill-in using Sequenase v. 2.0, [alpha-P32]-deoxyadenosine-5′-triphosphate, and [alpha-P32]-thymidine-5′-triphosphate, and isolating the cloned fragments by nondenaturing gel electrophoresis. A and G sequencing reactions were carried out as described (See Maxam and Gilbert, Methods Enzymol., 1980, 65, 499-560; Iverson and Dervan, Methods Enzymol., 1987, 15, 7823-7830; Sambrook et al., 1989, Molecular Cloning, 2nd ed., Cold Spring Harbor Laboratory Press: Cold Spring Harbor, N.Y.) Standard methods were used for all DNA manipulations (Sambrook et al., ibid.) The cut sites for EcoRI and PvuII are indicated by bars in the respective maps of Plasmids A, B, and C in FIGS. 5, 6, and 7.\n(§5) The 351 base pair dsDNA restriction fragment (SEQ ID NO. IV) of Plasmid A contained the target sequences AAAAAGCAAAAA, AAAAAGACAAAAA, and AAAAAGTACAAAAA. The 310 base pair dsDNA restriction fragment (SEQ ID NO. V) of Plasmid B contained the target sequences AGTACT, AATACT, and ATTACT. The 352 base pair dsDNA restriction fragment (SEQ ID NO. VI) of Plasmid C contained the target sequences TGACAATTAAT, GACAATTAATCA, AATTAATCAT, ACAATTA, and ACAATTAAT. These fragments were used for quantitative DNase I footprinting experiments. Compounds used in the method of this invention bind to at least one of the target sites with a equal to or less than 100 nM, preferably equal to or less than 50 nM, and more preferably equal to or less than 20 nM. The target sequences were selected for the identity with, or similarity to, promoter sites for bacterial genes.\n(§6) Quantitative DNase I footprint titration experiments were carried out as described previously (Dervan, WO 98/50582, 1998) with the following changes. All reactions were carried out in a total volume of 400 μL, with compound stock solution or water added to 15,000 cpm radiolabeled restriction fragment affording final solution conditions of 10 mM Tris HCl, 10 mM KCl, 10 mM MgCl2, 5 mM CaCl2, pH 7.0 and 0.01 nM, 0.1 nM, 1.0 nM, 10.0 nM compound or no compound for reference lanes. The compounds were allowed to equilbrate at 22° C. for 16 h. Footprinting reactions were initiated with addition of 10 μL of a DNase I stock solution (at the appropriate concentration to give ˜50% intact DNA) containing 1 mM DTT and allowed to proceed for 7 min at 22° C. The reactions were stopped, ethanol precipitated, resuspended in loading buffer, heat denatured, and placed on ice as described previously (Dervan WO 98/50582, 1998). The reaction products were separated on a precast 8% polyacrylamide denaturing sequencing Castaway gel with 32 preformed wells from Stratagene in 1×TBE at 2000 V. Gels were dried according to the manufacturer and exposed to a storage phosphor screen (Molecular Dynamics). Quantitation and data analysis were carried out as described in Dervan, WO 98/50582, 1998."}, "[5]": {"target": "target sequence AAAAAGCAAAAA (351 bp fragment, Plasmid A)", "test": "Quantitative DNase I footprint titration", "type": "binding", "conditions": "351 bp A, 22° C., pH 7.0, read-out: Dissociation Constant Kd", "excerpt": "as §2, §3, §4, §5, §6"}, "[6]": {"target": "target sequence AAAAAGACAAAAA (351 bp fragment, Plasmid A)", "test": "Quantitative DNase I footprint titration", "type": "binding", "conditions": "351 bp A, 22° C., pH 7.0, read-out: Dissociation Constant Kd", "excerpt": "as §2, §3, §4, §5, §6"}},
  "data": [
    {"smiles": "CN(C)CCCNC(=O)CCNC(=O)c1cc(NC(=O)c2cc(NC(=O)CCNC(=O)c3cc(NC(=O)c4cc(NC(=O)c5cc(Br)c(Br)s5)cn4C)cn3C)cn2C)cn1C", "note": "[Compound 1]", "values": [
      {"measurement": "Minimum Inhibitory Concentration (MIC)", "setting": "[1]", "result": ">32", "unit": "µg/mL"},
      {"measurement": "Minimum Inhibitory Concentration (MIC)", "setting": "[2]", "result": "− (− = MIC > 2)"},
      {"measurement": "Minimum Inhibitory Concentration (MIC)", "setting": "[3]", "result": "++ (++ = MIC ≦ 1)"},
      {"measurement": "Minimum Inhibitory Concentration (MIC)", "setting": "S. aureus ATCC 33591", "result": "+ (+ = MIC ≦ 2)"},
      {"measurement": "Minimum Inhibitory Concentration (MIC)", "setting": "S. aureus ATCC 27660", "result": "++ (++ = MIC ≦ 1)"},
      {"measurement": "Kd", "setting": "[4]", "result": 2, "unit": "nM"},
      {"measurement": "Kd", "setting": "[5]", "result": 0.01, "unit": "nM"},
      {"measurement": "Kd", "setting": "[6]", "result": 0.01, "unit": "nM"}
    ]}
  ]
}
